Consider five substances from article PMC2668518 (Bioconjugate chemistry, 2009).

The nature of this data set: Biodistribution of radiolabeled closo-borate. The data set is classed as in vivo, Male athymic mice (nu/nu). To be noted: mice; for tissue(s) with the highest concentration of radionuclide: 1 and 4 h pi; for concentration in urine: 1 h pi, urine at sacrifice; for route of excretion: inferred from tissue distribution at 1 and 4 h pi; for concentration in kidney: injected via lateral tail vein.

Take [Et3NH]2B10H8I-CONHpropyl [[^125I]1e]: the “tissue(s) with the highest concentration of radionuclide” value (“tissue(s)” below) is reported as “kidney”, the concentration in urine is on record as 320 ± 135 %ID/g and the route of excretion entry is given as “renal clearance”. In addition, the concentration in kidney (1 h post injection) came to 6.6 %ID/g. This substance returned a concentration in kidney (4 h post injection) of 0.27 %ID/g.
For “[Et3NH]2B12H10At-CONHpropyl [[^211At]2c]”, the “tissue(s)” value is given as “kidney” and the route of excretion result is on record as “kidney”.
For [Et3NH]2B12H10I-CONHpropyl [[^125I]2b], the “tissue(s)” value is “kidney” and the route of excretion result is recorded as “kidney”. The substance further yielded a concentration in kidney (1 h post injection) of 19.8 %ID/g. Besides, the concentration in kidney (4 h post injection) stood at 26.5 %ID/g.
With [nBu4N]2B10H8At-CONHpropyl [[^211At]1c], the “tissue(s)” value is “liver and intestines”; the concentration in urine was 33.11 ± 14.06 %ID/g.
[nBu4N]2B10H8I-CONHpropyl [[^125I]1b]: the “tissue(s)” value was “liver and intestines”; the concentration in urine is recorded as 174.43 ± 90.33 %ID/g; the route of excretion entry was “hepatobiliary rather than renal”.
